Results taken from patent US12138256B2, “Treatment of cardiopulmonary disorders” (Bayer Aktiengesellschaft, priority 2021, dated 2024).
Several values for one entry are separate records, joined by “and”; a condition that tells them apart may be missing. Equal entries are not always repeated.

How the values were obtained:
rabbit saphenous artery = test: Vasorelaxant effect in vitro: phenylephrine-induced contraction of rabbit saphenous artery rings (C-1.1); settings: mean +/− SEM
Experimental: Rabbits were anaesthetized and sacrificed by intravenous injection of thiopental sodium (about 50 mg/kg) and exsanguinated. The saphenous artery was removed and divided into rings 3 mm wide. The rings were mounted singly on in each case a pair of triangular hooks open at the end and made of 0.3 mm-thick special wire (Remanium®). Each ring was placed under an initial tension in 5 ml organ baths with Krebs-Henseleit solution which was at 37° C., was gassed with carbogen and had the following composition: NaCl 119 mM; KCl 4.8 mM; CaCl2)×2 H2O 1 mM; MgSO4×7 H2O 1.4 mM; KH2PO41.2 mM; NaHCO325 mM; glucose 10 mM; bovine serum albumin 0.001%. The force of contraction was detected with Statham UC2 cells, amplified and digitized via A/D converters (DAS-1802 HC, Keithley Instruments, Munich) and recorded in parallel on chart recorders. Contractions were induced by addition of phenylephrine.
The concentration necessary to reduce the contraction reached in the preceding control by 50% was calculated from this (IC50). The standard application volume was 5 μl. The proportion of DMSO in the bath solution corresponded to 0.1%.

[1] = tested on: anesthetized PAH minipigs; test: PAH minipig model: intratracheal application of dry powder formulations and different hydrates (PennCentury insufflator); format: in vivo, Göttingen minipig; settings: for PAP % changes vs. baseline: 375 μg/kg i.t., each animal; for BP / PAP: micronized 375 μg/kg intratracheal @90 min
Source text: After characterization of the effects of comparative example 11 after nebulization of compound solutions, in a further step the effects of crystalline forms of comparative example 11, e.g. sesquihydrate, e.g. example 6e on PAP and BP after inhaled application of different dry powder lactose formulations (table C2.1.8) were studied in anesthetized PAH minipigs.
As reference pure Lactose vehicle was applied in the beginning of each experiment.

[2] = time not printed, 1st row after 310
[3] = time not printed, 2nd row after 310

O=C(O)CCCCN(CCc1ccccc1OCc1ccc(CCc2ccccc2)cc1)Cc1ccc(C(=O)O)cc1 [comparative example 1 (Cinaciguat)]
% contraction (PE-induced contraction of rabbit saphenous artery) (rabbit saphenous artery; 10^−6 M/L, incubation time 0.5 h): 19 ± 6.1% | % contraction (PE-induced contraction of rabbit saphenous artery) (rabbit saphenous artery; 10^−7 M/L, incubation time 0.5 h): 28 ± 4.2% | % contraction (PE-induced contraction of rabbit saphenous artery) (rabbit saphenous artery; 10^−7 M/L, incubation time 2.5 h): 33 ± 5.8% | % contraction (PE-induced contraction of rabbit saphenous artery) (rabbit saphenous artery; 10^−8 M/L, incubation time 0.5 h): 54 ± 5.2% | % contraction (PE-induced contraction of rabbit saphenous artery) (rabbit saphenous artery; 10^−8 M/L, incubation time 2.5 h): 48 ± 6.0% | % contraction (PE-induced contraction of rabbit saphenous artery) (rabbit saphenous artery; 10^−9 M/L, incubation time 0.5 h): 85 ± 4.2% | % contraction (PE-induced contraction of rabbit saphenous artery) (rabbit saphenous artery; 10^−9 M/L, incubation time 2.5 h): 75 ± 4.6% | % contraction (PE-induced contraction of rabbit saphenous artery) (rabbit saphenous artery; 10^−10 M/L, incubation time 0.5 h): 101 ± 1.7% | % contraction (PE-induced contraction of rabbit saphenous artery) (rabbit saphenous artery; 10^−10 M/L, incubation time 2.5 h): 93 ± 2.6% | % contraction (PE-induced contraction of rabbit saphenous artery) (rabbit saphenous artery; 10^−11 M/L, incubation time 0.5 h): 97 ± 1.2%

O.O.O.O=C(O)c1ccc(CCN(CCc2ccccc2OCc2ccc(-c3ccc(C(F)(F)F)cc3)cc2Cl)[C@H]2CCCc3nc(C(=O)O)ccc32)cc1.O=C(O)c1ccc(CCN(CCc2ccccc2OCc2ccc(-c3ccc(C(F)(F)F)cc3)cc2Cl)[C@H]2CCCc3nc(C(=O)O)ccc32)cc1 [example 6e, (5S)-{[2-(4-Carboxyphenyl)ethyl][2-(2-{[3-chloro-4′-(trifluoromethyl)biphenyl-4-yl]methoxy}phenyl)-ethyl]amino}-5,6,7,8-tetrahydroquinoline-2-carboxylic acid sesquihydrate]
efficacy with regard to PAP reduction as well as systemic BP reduction ([1]; 1.5 mg/4 kg (=375 μg/kg) intratracheally, micronized): comparable efficacy | effect on PAP and BP after i.t. application ([1]; lactose formulation I 7.5 μg/kg, II 22.5 μg/kg, micronized sesquihydrate 375 μg/kg, n=3): decrease of PAP without any effects on BP | time to maximum effect on PAP after i.t. application ([1]; lactose formulation I 7.5 μg/kg, lactose formulation II 22.5 μg/kg, micronized sesquihydrate 375 μg/kg): approximately 80 min | PAP % changes vs. baseline ([1]; time 80): 100.0% | PAP % changes vs. baseline ([1]; time 90, sesquihydrate): 98.9% and 103.6% and 99.8% | PAP % changes vs. baseline ([1]; time 100, sesquihydrate): 99.5% and 101.4% and 97.3% | PAP % changes vs. baseline ([1]; time 110, sesquihydrate): 89.3% and 98.7% and 86.8% | PAP % changes vs. baseline ([1]; time 120, sesquihydrate): 84.0% and 95.6% and 75.7% | PAP % changes vs. baseline ([1]; time 130, sesquihydrate): 78.9% and 93.7% and 70.2% | PAP % changes vs. baseline ([1]; time 140, sesquihydrate): 75.2% and 91.8% and 67.5% | PAP % changes vs. baseline ([1]; time 150, sesquihydrate): 74.0% and 76.0% and 65.4% | PAP % changes vs. baseline ([1]; time 160, sesquihydrate): 71.0% and 79.5% and 65.9% | PAP % changes vs. baseline ([1]; time 170, sesquihydrate): 68.5% and 74.3% and 61.5% | PAP % changes vs. baseline ([1]; time 180, sesquihydrate): 63.2% and 80.8% and 62.0% | PAP % changes vs. baseline ([1]; time 190, sesquihydrate): 61.5% and 80.8% and 58.6% | PAP % changes vs. baseline ([1]; time 200, sesquihydrate): 62.3% and 80.3% and 60.2% | PAP % changes vs. baseline ([1]; time 210, sesquihydrate): 61.0% and 80.7% and 59.4% | PAP % changes vs. baseline ([1]; time 220, sesquihydrate): 59.5% and 86.3% and 57.8% | PAP % changes vs. baseline ([1]; time 230, sesquihydrate): 58.6% and 82.6% and 57.8% | PAP % changes vs. baseline ([1]; time 240, sesquihydrate): 59.3% and 81.5% and 57.6% | PAP % changes vs. baseline ([1]; time 250, sesquihydrate): 59.3% and 82.2% and 56.1% | PAP % changes vs. baseline ([1]; time 260, sesquihydrate): 58.8% and 82.7% and 57.6% | PAP % changes vs. baseline ([1]; time 270, sesquihydrate): 59.9% and 78.3% and 55.4% | PAP % changes vs. baseline ([1]; time 280, sesquihydrate): 58.4% and 78.3% and 55.9% | PAP % changes vs. baseline ([1]; time 290, sesquihydrate): 57.4% and 79.6% and 53.9% | PAP % changes vs. baseline ([1]; time 300, sesquihydrate): 60.1% and 78.7% and 54.5% | PAP % changes vs. baseline ([1]; time 310, sesquihydrate): 58.4% and 77.6% and 53.7% | PAP % changes vs. baseline ([1]; time 320, sesquihydrate): 61.8% and 76.3% and 55.1% | PAP % changes vs. baseline ([1]; time 330, sesquihydrate): 61.3% and 74.8% and 53.0%

O.O.O.O=C(O)c1ccc(CCN(CCc2ccccc2OCc2ccc(-c3ccc(C(F)(F)F)cc3)cc2Cl)[C@H]2CCCc3nc(C(=O)O)ccc32)cc1.O=C(O)c1ccc(CCN(CCc2ccccc2OCc2ccc(-c3ccc(C(F)(F)F)cc3)cc2Cl)[C@H]2CCCc3nc(C(=O)O)ccc32)cc1 [sesquihydrate ex. 6e]
BP ([1]; time 100): 99 mmHg and 111 mmHg and 117 mmHg | PAP ([1]; time 100): 40.7 mmHg and 38.7 mmHg and 39.6 mmHg | BP ([1]; time 110): 101 mmHg and 112 mmHg and 116 mmHg | PAP ([1]; time 110): 36.5 mmHg and 37.6 mmHg and 35.4 mmHg | BP ([1]; time 120): 101 mmHg and 114 mmHg and 115 mmHg | PAP ([1]; time 120): 34.3 mmHg and 36.4 mmHg and 30.8 mmHg | BP ([1]; time 130): 101 mmHg and 114 mmHg and 115 mmHg | PAP ([1]; time 130): 32.3 mmHg and 35.7 mmHg and 28.6 mmHg | BP ([1]; time 140): 99 mmHg and 120 mmHg and 114 mmHg | PAP ([1]; time 140): 30.8 mmHg and 35.0 mmHg and 27.5 mmHg | BP ([1]; time 150): 99 mmHg and 121 mmHg and 114 mmHg | PAP ([1]; time 150): 30.3 mmHg and 29.0 mmHg and 26.6 mmHg | BP ([1]; time 160): 100 mmHg and 122 mmHg and 114 mmHg | PAP ([1]; time 160): 29.0 mmHg and 30.3 mmHg and 26.9 mmHg | BP ([1]; time 170): 101 mmHg and 121 mmHg and 115 mmHg | PAP ([1]; time 170): 28.0 mmHg and 28.3 mmHg and 25.1 mmHg | BP ([1]; time 180): 99 mmHg and 119 mmHg and 115 mmHg | PAP ([1]; time 180): 25.8 mmHg and 30.8 mmHg and 25.3 mmHg | BP ([1]; time 190): 99 mmHg and 123 mmHg and 114 mmHg | PAP ([1]; time 190): 25.1 mmHg and 30.8 mmHg and 23.9 mmHg | BP ([1]; time 200): 98 mmHg and 116 mmHg and 113 mmHg | PAP ([1]; time 200): 25.5 mmHg and 30.6 mmHg and 24.6 mmHg | BP ([1]; time 210): 99 mmHg and 117 mmHg and 116 mmHg | PAP ([1]; time 210): 25.0 mmHg and 30.8 mmHg and 24.2 mmHg | BP ([1]; time 220): 97 mmHg and 123 mmHg and 114 mmHg | PAP ([1]; time 220): 24.3 mmHg and 32.9 mmHg and 23.6 mmHg | BP ([1]; time 230): 97 mmHg and 119 mmHg and 114 mmHg | PAP ([1]; time 230): 24.0 mmHg and 31.5 mmHg and 23.6 mmHg | BP ([1]; time 240): 97 mmHg and 119 mmHg and 112 mmHg | PAP ([1]; time 240): 24.3 mmHg and 31.0 mmHg and 23.5 mmHg | BP ([1]; time 250): 97 mmHg and 118 mmHg and 111 mmHg | PAP ([1]; time 250): 24.2 mmHg and 31.3 mmHg and 22.9 mmHg | BP ([1]; time 260): 96 mmHg and 116 mmHg and 112 mmHg | PAP ([1]; time 260): 24.0 mmHg and 31.5 mmHg and 23.5 mmHg | BP ([1]; time 270): 99 mmHg and 115 mmHg and 109 mmHg | PAP ([1]; time 270): 24.5 mmHg and 29.8 mmHg and 22.6 mmHg | BP ([1]; time 280): 97 mmHg and 111 mmHg and 110 mmHg | PAP ([1]; time 280): 23.9 mmHg and 29.8 mmHg and 22.8 mmHg | BP ([1]; time 290): 97 mmHg and 110 mmHg and 107 mmHg | PAP ([1]; time 290): 23.5 mmHg and 30.3 mmHg and 22.0 mmHg | BP ([1]; time 300): 98 mmHg and 109 mmHg and 108 mmHg | PAP ([1]; time 300): 24.6 mmHg and 30.0 mmHg and 22.2 mmHg | BP ([1]; time 310): 97 mmHg and 109 mmHg and 105 mmHg | PAP ([1]; time 310): 23.9 mmHg and 29.6 mmHg and 21.9 mmHg | BP [1, 2]: 94 mmHg and 108 mmHg and 105 mmHg | PAP [1, 2]: 25.3 mmHg and 29.1 mmHg and 22.5 mmHg | BP [1, 3]: 97 mmHg and 108 mmHg and 105 mmHg | PAP [1, 3]: 25.1 mmHg and 28.5 mmHg and 21.6 mmHg
